# Assay results published in PubChem BioAssay AID212 (DTP/NCI, 2004).
# “And” between values parts separate entries of the source, which are not always exact repeats. Equal entries are not always repeated. Records with an inconclusive call do not appear.
# Test system: BDF1 mice, colon carcinoma 38 sc, T/C %
# Test: NCI In Vivo Anticancer Drug Screen. Data for tumor model Colon Carcinoma 38 (subcutaneous) in B6D2F1 (BDF1) mice
# In short: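 Compound antitumor activity was assessed in mice carrying transplantable tumors. Survival or tumor size was recorded, and each value is the treated-group measurement divided by that of the vehicle-treated control group.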
# [1] = endpoint: median tumor weight (est.), dose: 100.0 mg/kg/injection, schedule: Q07DX002 (ip), vehicle: saline with Tween-80, higher = larger tumour
# [2] = endpoint: median tumor weight (est.), dose: 200.0 mg/kg/injection, schedule: Q07DX002 (ip), vehicle: saline with Tween-80, higher = larger tumour
# [3] = endpoint: median tumor weight (est.), dose: 400.0 mg/kg/injection, schedule: Q07DX002 (ip), vehicle: saline with Tween-80, higher = larger tumour
# [4] = endpoint: median tumor weight (est.), dose: 8.0 mg/kg/injection, schedule: Q07DX002 (ip), vehicle: saline, higher = larger tumour
# [5] = endpoint: median tumor weight (est.), dose: 12.5 mg/kg/injection, schedule: Q07DX002 (ip), vehicle: saline with Tween-80, higher = larger tumour
# [6] = endpoint: median tumor weight (est.), dose: 25.0 mg/kg/injection, schedule: Q07DX002 (ip), vehicle: saline with Tween-80, higher = larger tumour
# [7] = endpoint: median tumor weight (est.), dose: 50.0 mg/kg/injection, schedule: Q07DX002 (ip), vehicle: saline with Tween-80, higher = larger tumour
smiles,measurement,setting,value
C[C@]12CCC(=O)C=C1CC[C@@H]1[C@@H]2C(=O)C[C@@]2(C)[C@H]1CC[C@]2(O)C(=O)CO,T/C,"endpoint: median tumor weight (est.), dose: 40.0 mg/kg/injection, schedule: Q07DX003 (ip), vehicle: Klucel (hydroxypropylcellulose) (HPC), higher = larger tumour",74 % of control
same,T/C,"endpoint: median tumor weight (est.), dose: 50.0 mg/kg/injection, schedule: Q07DX002 (ip), vehicle: Klucel (hydroxypropylcellulose) (HPC), higher = larger tumour",117 % of control
same,T/C,"endpoint: median tumor weight (est.), dose: 80.0 mg/kg/injection, schedule: Q07DX003 (ip), vehicle: Klucel (hydroxypropylcellulose) (HPC), higher = larger tumour",88 % of control
same,T/C,"endpoint: median tumor weight (est.), dose: 100.0 mg/kg/injection, schedule: Q07DX002 (ip), vehicle: Klucel (hydroxypropylcellulose) (HPC), higher = larger tumour",69 % of control
same,T/C,"endpoint: median tumor weight (est.), dose: 160.0 mg/kg/injection, schedule: Q07DX003 (ip), vehicle: Klucel (hydroxypropylcellulose) (HPC), higher = larger tumour",66 % of control
same,T/C,"endpoint: median tumor weight (est.), dose: 200.0 mg/kg/injection, schedule: Q07DX002 (ip), vehicle: Klucel (hydroxypropylcellulose) (HPC), higher = larger tumour",45 % of control
same,T/C,"endpoint: median tumor weight (est.), dose: 320.0 mg/kg/injection, schedule: Q07DX003 (ip), vehicle: Klucel (hydroxypropylcellulose) (HPC), higher = larger tumour",74 % of control
same,T/C,"endpoint: median tumor weight (est.), dose: 400.0 mg/kg/injection, schedule: Q07DX002 (ip), vehicle: Klucel (hydroxypropylcellulose) (HPC), higher = larger tumour",53 % of control
same,T/C,"endpoint: median tumor weight (est.), dose: 640.0 mg/kg/injection, schedule: Q07DX003 (ip), vehicle: Klucel (hydroxypropylcellulose) (HPC), higher = larger tumour",47 % of control
same,T/C,"endpoint: median tumor weight (est.), dose: 800.0 mg/kg/injection, schedule: Q07DX002 (ip), vehicle: Klucel (hydroxypropylcellulose) (HPC), higher = larger tumour",66 % of control
same,T/C,"endpoint: median tumor weight (est.), dose: 1200.0 mg/kg/injection, schedule: Q07DX002 (ip), vehicle: Klucel (hydroxypropylcellulose) (HPC), higher = larger tumour",67 % of control
C=C1C(=O)OC2/C=C(\C)CC(O)/C=C(/CO)CC(OC(=O)/C(C)=C/C)C12 (stereo unspecified),T/C,"endpoint: median tumor weight (est.), dose: 7.5 mg/kg/injection, schedule: Q07DX002 (ip), vehicle: saline + alcohol, higher = larger tumour",223 % of control
same,T/C,"endpoint: median tumor weight (est.), dose: 30.0 mg/kg/injection, schedule: Q07DX002 (ip), vehicle: saline + alcohol, higher = larger tumour",168 % of control
same,T/C,"endpoint: median tumor weight (est.), dose: 60.0 mg/kg/injection, schedule: Q07DX002 (ip), vehicle: saline + alcohol, higher = larger tumour",441 % of control
C/C=C/C1=CC(=O)C(O)C1O (stereo unspecified),T/C,"endpoint: median tumor weight (est.), dose: 90.0 mg/kg/injection, schedule: Q07DX002 (ip), vehicle: water, higher = larger tumour",75 % of control
same,T/C,"endpoint: median tumor weight (est.), dose: 180.0 mg/kg/injection, schedule: Q07DX002 (ip), vehicle: water, higher = larger tumour",170 % of control
CNC(=O)OCc1c(COC(=O)NC)c(-c2ccc(Cl)c(Cl)c2)n2c1Cc1ccccc1C2,T/C,"endpoint: median tumor weight (est.), dose: 50.0 mg/kg/injection, schedule: Q07DX002 (ip), vehicle: distilled water + Tween-80, higher = larger tumour",86 % of control
same,T/C,"endpoint: median tumor weight (est.), dose: 100.0 mg/kg/injection, schedule: Q07DX002 (ip), vehicle: distilled water + Tween-80, higher = larger tumour",81 % of control
same,T/C,"endpoint: median tumor weight (est.), dose: 200.0 mg/kg/injection, schedule: Q07DX002 (ip), vehicle: distilled water + Tween-80, higher = larger tumour",65 % of control
Nc1nc(N)c2cc(S(=O)(=O)c3ccccc3)ccc2n1,T/C,"endpoint: median survival time, dose: 57.0 mg/kg/injection, schedule: Q06HX014 (ip), vehicle: saline with Tween-80, higher = longer survival",166 % of control
same,T/C,"endpoint: median survival time, dose: 86.0 mg/kg/injection, schedule: Q06HX014 (ip), vehicle: saline with Tween-80, higher = longer survival",205 % of control
same,T/C,"endpoint: median survival time, dose: 520.0 mg/kg/injection, schedule: Q07DX002 (ip), vehicle: saline with Tween-80, higher = longer survival",118 % of control
same,T/C,[1],106 % of control
same,T/C,[2],190 % of control
same,T/C,[3],169 % of control
same,T/C,"endpoint: median tumor weight (est.), dose: 800.0 mg/kg/injection, schedule: Q07DX002 (ip), vehicle: saline with Tween-80, higher = larger tumour",21 % of control
Nc1nc(=S)c2[nH]cnc2[nH]1,T/C,"endpoint: median tumor weight (est.), dose: 1.56 mg/kg/injection, schedule: Q07DX002 (ip), vehicle: alkali diluted with saline, higher = larger tumour",105 % of control
same,T/C,"endpoint: median tumor weight (est.), dose: 2.0 mg/kg/injection, schedule: Q07DX002 (ip), vehicle: alkali diluted with saline, higher = larger tumour",63 % of control
same,T/C,"endpoint: median tumor weight (est.), dose: 2.0 mg/kg/injection, schedule: Q07DX003 (ip), vehicle: alkali diluted with saline, higher = larger tumour",37 % of control and 46 % of control (2×)
same,T/C,"endpoint: median tumor weight (est.), dose: 2.0 mg/kg/injection, schedule: Q07DX003 (ip), vehicle: saline, higher = larger tumour",52 % of control and 61 % of control
same,T/C,"endpoint: median tumor weight (est.), dose: 3.13 mg/kg/injection, schedule: Q07DX002 (ip), vehicle: alkali diluted with saline, higher = larger tumour",32 % of control
same,T/C,"endpoint: median tumor weight (est.), dose: 4.0 mg/kg/injection, schedule: Q07DX002 (ip), vehicle: alkali diluted with saline, higher = larger tumour",44 % of control
same,T/C,"endpoint: median tumor weight (est.), dose: 4.0 mg/kg/injection, schedule: Q07DX002 (ip), vehicle: saline, higher = larger tumour",54 % of control and 78 % of control
same,T/C,"endpoint: median tumor weight (est.), dose: 4.0 mg/kg/injection, schedule: Q07DX003 (ip), vehicle: saline, higher = larger tumour",27 % of control and 42 % of control
same,T/C,"endpoint: median tumor weight (est.), dose: 6.25 mg/kg/injection, schedule: Q07DX002 (ip), vehicle: alkali diluted with saline, higher = larger tumour",29 % of control
same,T/C,"endpoint: median tumor weight (est.), dose: 8.0 mg/kg/injection, schedule: Q07DX002 (ip), vehicle: alkali diluted with saline, higher = larger tumour",21 % of control
same,T/C,[4],26 % of control and 31 % of control
same,T/C,"endpoint: median tumor weight (est.), dose: 8.0 mg/kg/injection, schedule: Q07DX003 (ip), vehicle: alkali diluted with saline, higher = larger tumour",8 % of control and 11 % of control and 18 % of control
same,T/C,"endpoint: median tumor weight (est.), dose: 8.0 mg/kg/injection, schedule: Q07DX003 (ip), vehicle: saline, higher = larger tumour",13 % of control and 37 % of control
same,T/C,"endpoint: median tumor weight (est.), dose: 12.5 mg/kg/injection, schedule: Q07DX002 (ip), vehicle: alkali diluted with saline, higher = larger tumour",9 % of control
same,T/C,"endpoint: median tumor weight (est.), dose: 16.0 mg/kg/injection, schedule: Q07DX002 (ip), vehicle: alkali diluted with saline, higher = larger tumour",20 % of control
same,T/C,"endpoint: median tumor weight (est.), dose: 16.0 mg/kg/injection, schedule: Q07DX002 (ip), vehicle: saline, higher = larger tumour",17 % of control and 24 % of control
same,T/C,"endpoint: median tumor weight (est.), dose: 16.0 mg/kg/injection, schedule: Q07DX003 (ip), vehicle: alkali diluted with saline, higher = larger tumour",2 % of control and 8 % of control
same,T/C,"endpoint: median tumor weight (est.), dose: 16.0 mg/kg/injection, schedule: Q07DX003 (ip), vehicle: saline, higher = larger tumour",4 % of control and 15 % of control
same,T/C,"endpoint: median tumor weight (est.), dose: 25.0 mg/kg/injection, schedule: Q07DX002 (ip), vehicle: alkali diluted with saline, higher = larger tumour",18 % of control
same,T/C,"endpoint: median tumor weight (est.), dose: 32.0 mg/kg/injection, schedule: Q07DX002 (ip), vehicle: alkali diluted with saline, higher = larger tumour",14 % of control
same,T/C,"endpoint: median tumor weight (est.), dose: 32.0 mg/kg/injection, schedule: Q07DX003 (ip), vehicle: alkali diluted with saline, higher = larger tumour",2 % of control
same,T/C,"endpoint: median tumor weight (est.), dose: 32.0 mg/kg/injection, schedule: Q07DX003 (ip), vehicle: saline, higher = larger tumour",9 % of control
same,T/C,"endpoint: median tumor weight (est.), dose: 50.0 mg/kg/injection, schedule: Q07DX002 (ip), vehicle: alkali diluted with saline, higher = larger tumour",16 % of control
Nc1ncnc2c1ncn2C1C=C(CO)C(O)C1O (stereo unspecified),T/C,"endpoint: median tumor weight (est.), dose: 1.0 mg/kg/injection, schedule: Q07DX002 (ip), vehicle: saline, higher = larger tumour",74 % of control and 84 % of control
same,T/C,"endpoint: median tumor weight (est.), dose: 2.0 mg/kg/injection, schedule: Q07DX002 (ip), vehicle: saline, higher = larger tumour",93 % of control
same,T/C,[4],107 % of control
NC(N)=NC(N)=Nc1ccc(-c2ccc(N=C(N)N=C(N)N)cc2)cc1,T/C,"endpoint: median tumor weight (est.), dose: 3.12 mg/kg/injection, schedule: Q07DX002 (ip), vehicle: saline with Tween-80, higher = larger tumour",72 % of control
same,T/C,"endpoint: median tumor weight (est.), dose: 6.25 mg/kg/injection, schedule: Q07DX002 (ip), vehicle: saline with Tween-80, higher = larger tumour",61 % of control
same,T/C,[5],75 % of control
same,T/C,[6],69 % of control
same,T/C,[7],58 % of control
CCCCCCCC(=O)N/N=C(\CO)[C@]1(O)Cc2c(O)c3c(c(O)c2[C@@H](OC2CC(N)C(O)C(C)O2)C1)C(=O)c1c(OC)cccc1C3=O (stereo partly specified),T/C,"endpoint: median survival time, dose: 30.0 mg/kg/injection, schedule: Q07DX002 (sc), vehicle: saline, higher = longer survival",100 % of control
same,T/C,"endpoint: median survival time, dose: 48.0 mg/kg/injection, schedule: Q07DX002 (sc), vehicle: saline, higher = longer survival",75 % of control
same,T/C,"endpoint: median survival time, dose: 126.0 mg/kg/injection, schedule: Q07DX002 (sc), vehicle: saline, higher = longer survival",105 % of control
same,T/C,"endpoint: median tumor weight (est.), dose: 6.75 mg/kg/injection, schedule: Q07DX002 (ip), vehicle: distilled water + Tween-80, higher = larger tumour",84 % of control
same,T/C,"endpoint: median tumor weight (est.), dose: 6.75 mg/kg/injection, schedule: Q07DX002 (ip), vehicle: suspension in saline, higher = larger tumour",97 % of control
same,T/C,"endpoint: median tumor weight (est.), dose: 13.5 mg/kg/injection, schedule: Q07DX002 (ip), vehicle: suspension in saline, higher = larger tumour",73 % of control
same,T/C,"endpoint: median tumor weight (est.), dose: 27.0 mg/kg/injection, schedule: Q07DX002 (ip), vehicle: suspension in saline, higher = larger tumour",101 % of control
same,T/C,"endpoint: median tumor weight (est.), dose: 54.0 mg/kg/injection, schedule: Q07DX002 (ip), vehicle: distilled water + Tween-80, higher = larger tumour",18 % of control and 41 % of control
same,T/C,"endpoint: median tumor weight (est.), dose: 54.0 mg/kg/injection, schedule: Q07DX002 (ip), vehicle: suspension in saline, higher = larger tumour",58 % of control
COc1cc(Cl)ccc1C,T/C,[5],99 % of control
same,T/C,[6],71 % of control
same,T/C,[7],68 % of control
same,T/C,[1],82 % of control
same,T/C,[2],89 % of control
same,T/C,[3],89 % of control
O=[N+]([O-])O.O=[N+]([O-])O.[NH-]C1CCCCC1[NH-].[Pt+2] (stereo unspecified),T/C,"endpoint: median tumor weight (est.), dose: 0.5 mg/kg/injection, schedule: Q07DX002 (ip), vehicle: dextrose, higher = larger tumour",101 % of control
same,T/C,"endpoint: median tumor weight (est.), dose: 2.0 mg/kg/injection, schedule: Q07DX002 (ip), vehicle: dextrose, higher = larger tumour",62 % of control and 81 % of control
same,T/C,"endpoint: median tumor weight (est.), dose: 4.0 mg/kg/injection, schedule: Q07DX002 (ip), vehicle: dextrose, higher = larger tumour",62 % of control and 81 % of control
same,T/C,"endpoint: median tumor weight (est.), dose: 8.0 mg/kg/injection, schedule: Q07DX002 (ip), vehicle: dextrose, higher = larger tumour",27 % of control and 33 % of control
